# Legend:
# Format in all cases: cell-based, IRM-2 mice
# [1] = system: dendritic cells; experiment: Dendritic cell surface marker expression (FITC antibodies to CD11c and CD80, flow cytometry); settings: day 9
# Protocol: (§1) Immature dendritic cells were isolated from spleens of IRM-2 mice with lymphocyte separation solution. The method used was adapted from a method of isolating lymphocytes using a centrifugation technique. First, diluted defibrinated blood was layered on a solution of sodium metrizoate and Dextran or Ficoll® and centrifuged at low speeds for 30 minutes. […] Mononuclear cells (lymphocytes and monocytes) and platelets are contained in the banded plasma-lymphocyte separation medium interphase due to their density. Erythrocytes and granulocytes migrate through the gradient and form a pellet to the bottom of the tube. Lymphocytes were recovered by aspirating the plasma layer and removing the cells. After proper washing and treatment, cells were suspended in RPMI-1640 containing 10% FCS and incubated in a CO2-incubator (37° C., 5% CO2) for 2 hours before use.
# (§2) The immature dendritic cells were divided into 6 groups and were centrifuged to remove the supernatants. RPMI-1640 containing 10 ng/ml IL-4, 100 ng/ml GM-CSF, 10% FCS, and MEK at either 0 ng/ml, 7.5 ng/ml, 15 ng/ml, 30 ng/ml, 60 ng/ml or 120 ng/ml was then added to the cells. The final cell density was 2×10^5 cells/ml. Cells were returned to the CO2-incubator and the media were replaced in half volumes every other day starting on the 3rd day. Cells were allowed to grow for 9 days and thereafter cell numbers were counted with an inverted phase-contrasted microscope. The group of cells having the highest density was regarded as having the most optimum conditions in terms of concentration for cytokines. Cell density was determined using the MTT [3-(4,5-Dimethylthiazol-2-yl)-2,5-Diphenyltetrazolium Bromide] assay, using methods known in the art. MEK facilitated the growth and multiplication of dendritic cells in a concentration dependent fashion. The effects were greatest with a MEK concentration at around 60 ng/ml and then decreased thereafter as MEK concentration increased.
# Cells isolated and cultured as described above were processed on the 9th day with the addition of FITC labeled antibodies to CD11c and CD80. CD11c is the most specific cell surface marker for mature dendritic cells. CD80 is another marker that is expressed on mature dendritic cells. Stained cells were analyzed with a flow cell cytometer and cells expressing fluorescence markers were regarded as positive. The positive rates were analyzed and calculated using Bios Consort 30 software.
# [2] = system: cultured dendritic cells; experiment: IL-12 levels in supernatants of cultured dendritic cells (IL-12 ELISA); settings: supernatant day 9
# Protocol: as §1, §2
# To further characterize the cultured cells, cell culture supernatants were collected on the 9th day of incubation and were assayed according to the procedures defined in the IL-12 ELISA Assay Kit obtained from eBioscience, USA. IL-12 is a cytokine known to be secreted by mature dendritic cells.
# [3] = system: dendritic cells; experiment: Micrographs of dendritic cells (400x); settings: 60 ng/ml MEK; with IL-4 and GM-CSF
# Excerpt: FIGS. 1 and 2 show micrographs of dendritic cells magnified 400×. Cells were isolated and cultured as described above.
# [4] = system: immature dendritic cells; experiment: Dendritic cell density and proliferation with different concentrations of MEK (cell counting / MTT assay); settings: for Cell Density: 9 days culture with IL-4 and GM-CSF; for Increase Percent: control = 100.0
# Protocol: as §1, §2
structure (smiles),measurement,setting,value
"CSCC[C@H](NC(=O)[C@@H](Cc1ccccc1)NC(=O)CNC(=O)CNC(=O)[C@H](N)Cc1ccc(O)cc1)C(=O)O [MEK, methionine enkephalin]",CD11C(+) %,"[1]; MEK 7.5 ng/ml, control 47.2",49.9%
same,CD80(+) %,"[1]; MEK 7.5 ng/ml, control 50.3",51.3%
same,CD11C(+) %,[1]; MEK 15 ng/ml,51.3%
same,CD80(+) %,[1]; MEK 15 ng/ml,54.1%
same,CD11C(+) %,[1]; MEK 30 ng/ml,55.6%
same,CD80(+) %,[1]; MEK 30 ng/ml,58.7%
same,CD11C(+) %,[1]; MEK 60 ng/ml,62.7%
same,CD80(+) %,[1]; MEK 60 ng/ml,64.6%
same,CD11C(+) %,[1]; MEK 120 ng/ml,57.3%
same,CD80(+) %,[1]; MEK 120 ng/ml,63.3%
same,IL-12 Level,"[2]; MEK 7.5 ng/ml, control 68",102 ± 1.1 pg/mL
same,IL-12 Level,[2]; MEK 15 ng/ml,126 ± 0.4 pg/mL
same,IL-12 Level,[2]; MEK 30 ng/ml,175 ± 1.6 pg/mL
same,IL-12 Level,[2]; MEK 60 ng/ml,256 ± 0.3 pg/mL
same,IL-12 Level,[2]; MEK 120 ng/ml,227 ± 1.9 pg/mL
same,cell density in micrographs versus cells not treated with MEK,[3],increase in cell density
same,cell processes (veils or dendrites) on the dendritic cells versus cells not treated with MEK,[3],increase in cell processes
same,Cell Density,"[4]; MEK 7.5 ng/ml, start 2x10^5 cells/ml",2.2 ± 0.1 10^5/ml
same,Increase Percent,[4]; MEK 7.5 ng/ml,127.1%
same,Cell Density,[4]; MEK 15 ng/ml,2.5 ± 0.2 10^5/ml
same,Increase Percent,[4]; MEK 15 ng/ml,133.3%
same,Cell Density,[4]; MEK 30 ng/ml,2.9 ± 1.2 10^5/ml
same,Increase Percent,[4]; MEK 30 ng/ml,159.2%
same,Cell Density,[4]; MEK 60 ng/ml,4.8 ± 0.2 10^5/ml
same,Increase Percent,[4]; MEK 60 ng/ml,246.5%
same,Cell Density,[4]; MEK 120 ng/ml,3.1 ± 0.1 10^5/ml
same,Increase Percent,[4]; MEK 120 ng/ml,165.5%
same,MEK concentration with greatest effect on growth and multiplication of dendritic cells,"[4]; tested 7.5-120 ng/ml, concentration dependent",around 60 ng/ml

# — US20080286315A1, “Methionine Enkephalin as an Adjuvant for Vaccine Immunizations” (Penta Biotech, Inc., priority 2007, published 2008)
